In brackets after ≈: the same amount, converted by molar mass. Like-named read-outs stand apart in the source and are kept apart here.
What was measured:
[1] = test system: Enterobacteriaceae spp. strains; assay: In vitro activity (MIC) against Enterobacteriaceae spp. strains
[2] = test system: S. haemolyticus; assay: In vitro activity (MIC) against S. haemolyticus strains; conditions: Staphylococcus haemolyticus
[3] = test system: Staphylococcus spp. strains; assay: In vitro activity (MIC) against Staphylococcus spp. strains; conditions: Staphylococcus

COC1/C=C/O[C@@]2(C)Oc3c(C)c(O)c4c(O)c(c5c(c4c3C2=O)NC2C=C(C)C=CN52)NC(=O)/C(C)=C\C=C\C(C)C(O)C(C)C(O)C(C)C(O)C1C (stereo partly drawn) [25-desacetyl rifaximin]
MIC ([1]; Escherichia coli, E. coli 345): 128 µg/mL (≈ 172 µM)
MIC ([1]; Escherichia coli, E. coli 349): 128 µg/mL (≈ 172 µM)
MIC ([1]; Escherichia coli, E. coli 351): 128 µg/mL (≈ 172 µM)
MIC ([1]; Klebsiella aerogenes, E. aerogenes 235): 128 µg/mL (≈ 172 µM)
MIC ([1]; Klebsiella aerogenes, E. aerogenes 281): 128 µg/mL (≈ 172 µM)
MIC ([1]; Klebsiella aerogenes, E. aerogenes 290): 128 µg/mL (≈ 172 µM)
MIC ([1]; Klebsiella aerogenes, E. aerogenes 1023): 128 µg/mL (≈ 172 µM)
MIC ([1]; Klebsiella aerogenes, E. aerogenes 1030): 256 µg/mL (≈ 343 µM)
MIC ([1]; Klebsiella aerogenes, E. aerogenes 1031): 128 µg/mL (≈ 172 µM)
MIC ([1]; Klebsiella oxytoca, K. oxytoca 4): 128 µg/mL (≈ 172 µM)
MIC ([1]; Klebsiella oxytoca, K. oxytoca 18): 128 µg/mL (≈ 172 µM)
MIC ([1]; Klebsiella oxytoca, K. oxytoca 479): 128 µg/mL (≈ 172 µM)
MIC ([1]; Klebsiella oxytoca, K. oxytoca 499): 128 µg/mL (≈ 172 µM)
MIC ([1]; Klebsiella pneumoniae, K. pneumoniae 17): 128 µg/mL (≈ 172 µM)
MIC ([1]; Klebsiella pneumoniae, K. pneumoniae 19): 128 µg/mL (≈ 172 µM)
MIC ([1]; Klebsiella pneumoniae, K. pneumoniae 76): 256 µg/mL (≈ 343 µM)
MIC ([1]; Klebsiella pneumoniae, K. pneumoniae 80): 128 µg/mL (≈ 172 µM)
MIC ([1]; Klebsiella pneumoniae, K. pneumoniae 91): 128 µg/mL (≈ 172 µM)
MIC ([1]; Klebsiella pneumoniae, K. pneumoniae 1064): 128 µg/mL (≈ 172 µM)
MIC ([1]; Morganella morganii, M. morganii 42): 128 µg/mL (≈ 172 µM)
MIC ([1]; Morganella morganii, M. morganii 48): 128 µg/mL (≈ 172 µM)
MIC ([1]; Morganella morganii, M. morganii 50): 128 µg/mL (≈ 172 µM)
MIC ([1]; Morganella morganii, M. morganii 57): 256 µg/mL (≈ 343 µM)
MIC ([1]; Morganella morganii, M. morganii 67): 256 µg/mL (≈ 343 µM)
MIC ([1]; Morganella morganii, M. morganii 101): 128 µg/mL (≈ 172 µM)
MIC ([1]; Morganella morganii, M. morganii 105): 128 µg/mL (≈ 172 µM)
MIC ([1]; Morganella morganii, M. morganii 108): 128 µg/mL (≈ 172 µM)
MIC ([1]; Morganella morganii, M. morganii 453): 128 µg/mL (≈ 172 µM)
MIC ([1]; Morganella morganii, M. morganii 458): 256 µg/mL (≈ 343 µM)
MIC ([1]; Morganella morganii, M. morganii 461): 128 µg/mL (≈ 172 µM)
MIC ([1]; Morganella morganii, M. morganii 462): 128 µg/mL (≈ 172 µM)
MIC ([1]; Morganella morganii, M. morganii 923): 128 µg/mL (≈ 172 µM)
MIC ([1]; Morganella morganii, M. morganii 932): 128 µg/mL (≈ 172 µM)
MIC ([1]; Morganella morganii, M. morganii 935): 256 µg/mL (≈ 343 µM)
MIC ([1]; Morganella morganii, M. morganii 1006): 128 µg/mL (≈ 172 µM)
MIC ([1]; Proteus mirabilis, P. mirabilis 465): 128 µg/mL (≈ 172 µM)
MIC ([1]; Proteus mirabilis, P. mirabilis 466): 128 µg/mL (≈ 172 µM)
MIC ([1]; Proteus mirabilis, P. mirabilis 469): 128 µg/mL (≈ 172 µM)
MIC ([1]; Proteus mirabilis, P. mirabilis 470): 128 µg/mL (≈ 172 µM)
MIC ([1]; Proteus mirabilis, P. mirabilis 471): 256 µg/mL (≈ 343 µM)
MIC ([1]; Proteus mirabilis, P. mirabilis 472): 128 µg/mL (≈ 172 µM)
MIC ([1]; Proteus mirabilis, P. mirabilis 473): 128 µg/mL (≈ 172 µM)
MIC ([1]; Proteus mirabilis, P. mirabilis 477): 128 µg/mL (≈ 172 µM)
MIC ([1]; Proteus mirabilis, P. mirabilis 479): 128 µg/mL (≈ 172 µM)
MIC ([1]; Proteus mirabilis, P. mirabilis 480): 256 µg/mL (≈ 343 µM)
MIC ([1]; Proteus mirabilis, P. mirabilis 489): 128 µg/mL (≈ 172 µM)
MIC ([1]; Proteus mirabilis, P. mirabilis 928): 128 µg/mL (≈ 172 µM)
MIC ([1]; Proteus mirabilis, P. mirabilis 972): 128 µg/mL (≈ 172 µM)
MIC ([1]; Proteus mirabilis, P. mirabilis 983): 128 µg/mL (≈ 172 µM)
MIC ([1]; Proteus mirabilis, P. mirabilis 985): 256 µg/mL (≈ 343 µM)
MIC ([1]; Proteus mirabilis, P. mirabilis 987): 128 µg/mL (≈ 172 µM)
MIC ([1]; Proteus mirabilis, P. mirabilis 988): 128 µg/mL (≈ 172 µM)
MIC ([1]; Proteus mirabilis, P. mirabilis 990): 128 µg/mL (≈ 172 µM)
MIC ([1]; Proteus mirabilis, P. mirabilis 991): 128 µg/mL (≈ 172 µM)
MIC ([1]; Proteus mirabilis, P. mirabilis 993): 128 µg/mL (≈ 172 µM)
MIC ([1]; Proteus mirabilis, P. mirabilis 995): 128 µg/mL (≈ 172 µM)
MIC ([1]; Proteus mirabilis, P. mirabilis 996): 128 µg/mL (≈ 172 µM)
MIC ([1]; Proteus mirabilis, P. mirabilis 997): 128 µg/mL (≈ 172 µM)
MIC ([1]; Proteus mirabilis, P. mirabilis 998): 256 µg/mL (≈ 343 µM)
MIC ([1]; Providencia stuartii, P. stuartii 94): 128 µg/mL (≈ 172 µM)
MIC ([1]; Providencia stuartii, P. stuartii 299): 128 µg/mL (≈ 172 µM)
MIC ([1]; Providencia stuartii, P. stuartii 301): 128 µg/mL (≈ 172 µM)
MIC ([1]; Providencia stuartii, P. stuartii 306): 256 µg/mL (≈ 343 µM)
MIC ([1]; Providencia stuartii, P. stuartii 312): 128 µg/mL (≈ 172 µM)
MIC ([1]; Providencia stuartii, P. stuartii 459): 128 µg/mL (≈ 172 µM)
MIC ([1]; S. liquefaciens 55): 256 µg/mL (≈ 343 µM)
MIC ([1]; S. odorifera 59): 128 µg/mL (≈ 172 µM)
MIC ([1]; Serratia marcescens, S. marcescens 38): 128 µg/mL (≈ 172 µM)
MIC ([1]; Serratia marcescens, S. marcescens 45): 128 µg/mL (≈ 172 µM)
MIC ([1]; Serratia marcescens, S. marcescens 59): 128 µg/mL (≈ 172 µM)
MIC ([1]; Serratia marcescens, S. marcescens 63): 256 µg/mL (≈ 343 µM)
MIC ([1]; Stenotrophomonas maltophilia, S. maltophilia 1203): 128 µg/mL (≈ 172 µM)
MIC ([1]; Stenotrophomonas maltophilia, S. maltophilia 1208): 128 µg/mL (≈ 172 µM)
MIC ([2]; strain S. haemolyticus 243): 0.5 µg/mL (≈ 0.67 µM)
MIC ([2]; strain S. haemolyticus 276): 1 µg/mL (≈ 1.34 µM)
MIC ([2]; strain S. haemolyticus 955): 1 µg/mL (≈ 1.34 µM)
MIC ([2]; strain S. haemolyticus 982): 0.5 µg/mL (≈ 0.67 µM)
MIC50 [3]: 2 µg/mL (≈ 2.68 µM)
MIC90 [3]: 16 µg/mL (≈ 21.5 µM)
MIC ([3]; read-out: Mode (MIC), Staphylococcus spp. strains): 2 µg/mL (≈ 2.68 µM)
MIC ([3]; strain S. spp. 1102): 1 µg/mL (≈ 1.34 µM)
MIC ([3]; strain S. spp. 1187): 2 µg/mL (≈ 2.68 µM)
MIC ([3]; strain S. spp. 1195): 0.12 µg/mL (≈ 0.161 µM)
MIC ([3]; strain S. spp. 1256): 4 µg/mL (≈ 5.36 µM)
MIC ([3]; strain S. spp. 1312): 4 µg/mL (≈ 5.36 µM)
MIC ([3]; strain S. spp. 1689): 4 µg/mL (≈ 5.36 µM)
MIC ([3]; strain S. spp. 1745): 0.25 µg/mL (≈ 0.335 µM)

— patent US9364467B2 (Salix Pharmaceuticals, Ltd, priority 2012, dated 2016)
